# Results from the METLIN SMRT retention time set (Domingo-Almenara et al. 2019).
# Assay: gradient 5% acetonitrile 3 min, to 50% in 2 min, to 85% in 15 min, held 3 min, 100 µL/min
# Settings: column: Zorbax Extend-C18 2.1 x 50 mm; eluents: water / acetonitrile, 0.1% formic acid
# In short: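 The mobile phases were water and acetonitrile, each with 0.1% formic acid, pumped at 100 μL/min through a Zorbax Extend-C18 column (2.1 × 50 mm, 1.8 μm). Pure standards were injected as mixtures of ~100 molecules and detected by a quadrupole time-of-flight mass spectrometer in positive and negative ionization mode. Retention time came from computationally picked adduct peaks, each inspected by hand.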
row,Structure (SMILES),RP-LC retention time [s]
1,CC(C)N1C(=O)c2cccnc2Sc2cc(NC(=O)c3ccco3)ccc21,776
2,O=C(NC1CCCCC1)C1CCN(c2cnc(N3CCCC3)nc2)CC1,649
3,CSc1ccc(CNC(=O)Cc2c(C(=O)O)c(C)cn2C)cc1,757
4,COc1ccc(Cl)cc1C(=O)N1CCN(c2cc(C)nc(N3CCCC3)n2)CC1,665
5,COc1cccc(CCC(=O)N2C[C@@H]3C[C@H]2C[C@@H]3NC(=O)c2cccs2)c1,753
6,CCS(=O)(=O)c1nc2ccc(NS(=O)(=O)c3cc(C)c(C)cc3C)cc2s1,972
7,O=C(NOCC1CC1)c1ccc(F)c(F)c1Nc1ccc(I)cc1Cl,1150
8,Cc1ccc(C(=O)NCCc2nc3cccnc3n2C(C)C)cc1,666
9,CSc1ccc(NC(=O)CCl)cc1,751
10,CCOC(=O)c1noc2ncnc(Nc3ccccc3CC)c12,948
11,COc1ccc(Nc2cc(C(=O)N3CCCC3)nc3ccc(C)cc23)cc1,659
12,O=C(NCc1ccco1)c1cc2c(s1)CCN(C(=O)c1ccccc1)C2,758
13,CCOC(=O)c1cnc(N2CCN(Cc3ccccc3)CC2)c2ccccc12,755
14,Cc1csc(-c2cc(S(=O)(=O)Nc3ccc(F)cc3)cn2CC(=O)N2CCCC2)n1,853
15,O=C(NCCc1ccccc1)N1[C@H]2CC[C@@H]1c1cncnc1C2,642
16,COc1ccc(-c2noc(C3(NC(=O)c4ccc(F)cc4)CCCCC3)n2)cc1,1150
17,CC(C)c1cccc(NC(=O)C2CC(=O)N(c3cccc(NC(=O)C4CCC4)c3)C2)c1 (configuration not stated),957
18,COc1ccc(-c2nnc(SCc3cc(=O)n4c(C)csc4n3)o2)cc1OC,762
19,Cc1cc(Cl)ccc1S(=O)(=O)N1CC(c2nc(Cc3ccccc3)no2)C1,1140
20,CCNC(=O)c1ccc2nnc(C3CC3)n2c1,590
21,O=C(NC1CCCC1)c1nc(Cn2c(=O)oc3ccc(Cl)cc32)no1,931
22,CCOC(=O)c1ccc(NC(=O)c2cnc(-c3ccc(C)cc3)nc2-c2ccncc2)cc1,1050
23,O=C(NCc1c[nH]c2ncccc12)C1CCC1,558

row,Structure (SMILES),RP-LC retention time [s]
1,CCOCCCNC(=O)N1CCN(c2nc3ccccc3n(Cc3ccccc3)c2=O)CC1,914
2,O=C(NCc1cccs1)C1CCN(Cc2cc3ccccc3n2Cc2cccc(F)c2)CC1,779
3,CCOc1ccc(-c2noc(Cn3nc(-c4ccccc4)ccc3=O)n2)cc1,1070
4,O=C(c1cc(C2CC2)on1)N1CCCC1,718
5,Cc1ccc(NS(=O)(=O)c2cc(-c3[nH]ncc3C(=O)N3CCCC3)oc2C)cc1F,741
6,CC1CCCN(CCCNC(=O)CC2CCN(C(=O)C3CCCCC3)CC2)C1 (configuration not stated),604
7,Cc1nn(-c2ccccc2)c(C)c1S(=O)(=O)N1CCC(C(=O)N2CCc3ccccc3C2)CC1,986
8,COc1ccc(C(=O)Nc2ccc(CC(=O)N3CCOCC3)cc2)c(OC)c1OC,679
9,CC1=C(c2ccc(C)c(C)c2)S(=O)(=O)N=C1N1CCCN(C(=O)NC(C)C)CC1,787
10,Cc1ncn(CC(=O)Nc2ccc(F)cc2)c(=O)c1C,638
11,O=C(Nc1ccc(F)cc1Cl)c1cccn1Cc1noc(C2CC2)n1,924
12,CCOc1ccc(S(=O)(=O)N(CC(=O)N2CCNCC2)CC2CCCN2CC)cc1 (configuration not stated),585
13,CCn1cc(S(=O)(=O)N2CC(Oc3ccc(-c4nc(C)no4)cc3)C2)cn1,844
14,Cc1ccn2c(NC(=O)c3ccc(Cl)c([N+](=O)[O-])c3)c(-c3ccccc3)nc2c1,700
15,O=C(Cn1nc(N2CCSCC2)c2ccccc2c1=O)Nc1ccccc1,890
16,COCCN1C(=O)CS(=O)C12CCN(C(=O)c1ccsc1)CC2 (configuration not stated),593
17,CCC(C)NC(=O)Cn1ccn2nc(-c3ccc(F)cc3)c(CO)c2c1=O (configuration not stated),725
18,CCn1c(N2CCCC(C(=O)NCCCOC)C2)cc(=O)n(C)c1=O (configuration not stated),665
19,C[C@H](NC(=O)[C@@H]1CCCN1C(=O)[C@@H]1CCCN1C(=O)[C@@H](O)[C@H](N)Cc1ccccc1)C(N)=O,552
20,CCOCCCNS(=O)(=O)c1cc(-c2ccno2)cs1,796
21,C/C=C(/C)C(=O)O[C@H]1CC(C)=CC(=O)[C@@]2(C)CC[C@@](O)(C(C)C)[C@H]12,725
22,CCn1c(=O)n(CC(=O)NCCC(C)C)c(=O)c2cnc(-c3ccccc3)nc21,678
23,O=C(c1cccs1)N1CC(Oc2ccc(-c3nc(-c4ccccc4)no3)cc2)C1,1170

row,Structure (SMILES),RP-LC retention time [s]
1,COCC(=O)N1CCCN(C2=NS(=O)(=O)C(c3ccc(F)cc3)=C2C)CC1,677
2,Cc1ccc(C)c(NC(=O)N2CCC3(CC2)NC(=O)c2ccccc2O3)c1,766
3,COc1cc(-c2noc(Cn3cnc4c(cnn4-c4ccccc4)c3=O)n2)cc(OC)c1OC,920
4,COCCC(=O)Nc1cnc(-c2ccc(C(F)(F)F)cc2)nc1,895
5,Cc1ccc(-n2nc(C)c3c(=O)n(CC(=O)NCc4ccccc4Cl)ccc32)cc1,872
6,COc1cc(NC(=O)N2CCCC(C)(C(=O)NCc3ccc(C)cc3)C2)cc(OC)c1OC (configuration not stated),811
7,COc1ccc(Nc2c(-c3ccc(SC)cc3)nc3cnc(Br)cn23)cc1OC,934
8,COc1nn(C)cc1C(=O)Nc1cccc(-c2cn3c(n2)SCC3)c1,566
9,Cc1ncsc1C1N(C2CCN(Cc3cn(C)c4ccccc34)CC2)C(=O)C12CCCC2 (configuration not stated),693
10,O=C(NCCCN1CCCCC1)c1csc(-c2ccc(N3CCCC3)nc2)n1,562
11,CN(C)S(=O)(=O)c1ccc(-c2nnc(C(=O)N3CCCCC3)o2)cc1,824
12,O=C(C1COc2ccccc2O1)N1CC(n2ccnc2)C1 (configuration not stated),594
13,COc1ccccc1-c1csc(NC(=O)c2sc(COc3ccc(Cl)c(C)c3)nc2C)n1,1360
14,O=C(CCNc1c(-c2cccc(F)c2)nc2cnccn12)NCc1ccccc1F,742
15,COc1ccc(-c2noc(Cc3nnc(-c4cccc(Cl)c4)o3)n2)cc1,1070
16,Cc1ccc(NC(=O)C2(Cc3ccccc3)CCCCC(=O)N2)cc1 (configuration not stated),848
17,Cc1nc(-c2csc(S(=O)(=O)N3CCCC(C(=O)Nc4ccc(F)c(Cl)c4)C3)c2)no1 (configuration not stated),1010
18,CCCn1cc(CCNS(=O)(=O)c2ccc(F)cc2F)c2cccnc21,848
19,Cc1sc(-c2nnc(C(C)C)o2)cc1NS(C)(=O)=O,808
20,O=C(NC1CCCCC1)c1ccc2c(c1)CCN2C(=O)C1CC1,824
21,COc1cccc(C(=O)Nc2cccn3ncnc23)c1,710
